From ChEMBL document CHEMBL1135132, “Synthesis of more potent analogues of the acetylcholinesterase inhibitor, huperzine B” (Bioorg Med Chem Lett, 2002)

Target: T1, Acetylcholinesterase (Bos taurus, UniProt P23795)
T1 sequence (P23795 whole entry): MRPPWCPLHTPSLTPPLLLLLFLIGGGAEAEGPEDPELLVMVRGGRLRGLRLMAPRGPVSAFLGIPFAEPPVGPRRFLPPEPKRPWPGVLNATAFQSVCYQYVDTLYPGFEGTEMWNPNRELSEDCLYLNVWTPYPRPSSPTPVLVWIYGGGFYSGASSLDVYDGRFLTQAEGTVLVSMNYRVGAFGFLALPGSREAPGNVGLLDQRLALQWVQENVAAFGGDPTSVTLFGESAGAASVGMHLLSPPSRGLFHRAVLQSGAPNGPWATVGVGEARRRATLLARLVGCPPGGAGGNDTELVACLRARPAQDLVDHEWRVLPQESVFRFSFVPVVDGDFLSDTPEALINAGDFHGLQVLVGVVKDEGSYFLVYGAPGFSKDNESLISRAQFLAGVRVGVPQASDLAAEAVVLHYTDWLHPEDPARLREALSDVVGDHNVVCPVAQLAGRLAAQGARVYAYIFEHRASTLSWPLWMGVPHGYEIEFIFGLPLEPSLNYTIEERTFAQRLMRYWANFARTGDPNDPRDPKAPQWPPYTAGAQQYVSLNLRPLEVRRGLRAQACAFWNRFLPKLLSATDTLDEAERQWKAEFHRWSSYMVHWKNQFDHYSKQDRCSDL
Assay: Inhibitory constant against fetal bovine serum (FBS) acetylcholinesterase

| Compound | Ki |
| --- | --- |
| CC1=C[C@H]2Cc3[nH]c(=O)ccc3[C@]3(C1)NCCC[C@H]23 [HUPERZINE B] | 794 nM |
| CC1=CC2Cc3[nH]c(=O)ccc3C3(C1)NCCC(C)=C23 (stereo not given) | 2050 nM |
| CC1=CC2Cc3nc(O)ccc3C3(C1)NCC(C)=C23 (stereo not given) | 220 nM |
| CCC1=C2C3C=C(C)CC2(NC1)c1ccc(O)nc1C3 (stereo not given) | 400 nM |
| C/C=C1\[C@H]2C=C(C)C[C@]1(N)c1ccc(=O)[nH]c1C2 [HUPERZINE A] | 24 nM |
